Reference: ChEMBL document CHEMBL4431345, “A fluorescence polarization based assay for the identification and characterization of polymerase inhibitors” (Bioorg Med Chem Lett, 2016)
pIC50: −log10 of the molar value.

How the values were obtained:
[1] = Inhibition of Escherichia coli DNA polymerase 1 Klenow fragment preincubated for 15 mins followed by addition of DNA substrate for 60 mins in presence of dNTPS/TAMRA tracer by fluorescence polarization assay
[2] = Inhibition of Escherichia coli DNA polymerase 1 Klenow fragment preincubated for 15 mins followed by addition of DNA substrate for 60 mins in presence of dNTPS by picoGreen reagent based assay

pIC50 [1]: 4.57
pIC50 [2]: 4.16
Compound: Nc1ncnc2c1ncn2[C@H]1CC[C@@H](COP(=O)(O)OP(=O)(O)OP(=O)(O)O)O1 [DDA-TRIPHOSPHATE]
